Key:
[1] = biological target: T1, Glutamate receptor ionotropic, AMPA (Rattus norvegicus, UniProt P19490+P19491+P19492+P19493)
Description: Binding affinity in rat brain cortical membranes by the displacement of [3H]AMPA at Ionotropic glutamate receptor AMPA

[2] = biological target: Glutamate receptor ionotropic, kainate; assay: Displacement of [3H]kainate from rat brain cortical membrane Ionotropic glutamate receptor kainate
Glutamate NMDA receptor = assay: Displacement of [3H]DCKA at N-methyl-D-aspartate glutamate receptor 1; type: protein-complex assay, Rattus norvegicus
[3] = biological target: Glutamate receptor ionotropic, NMDA 1 (Rattus norvegicus) (UniProt P35439); assay: Inhibition of N-methyl-D-aspartate glutamate receptor 1 was measured in oocytes expressing the cloned rat NMDA receptor subunit combination NR1A/2C; type: functional, cell-based; settings: Oocyte
[4] = biological target: Glutamate receptor ionotropic, AMPA (Rattus norvegicus) (UniProt P19491+P19492+P19493+P19490); assay: Inhibition of Ionotropic glutamate receptor AMPA was measured in oocytes expressing rat cerebral cortex poly (A)+ RNA; type: functional, cell-based; settings: Oocyte
[5] = Partition coefficient determined using octanol versus pH 7.4 buffer; type: physicochemical; settings: octanol/pH 7.4 buffer
Mus musculus [6] = species: Mus musculus; assay: Anticonvulsant activity tested in mouse; type: functional
[7] = biological target: T2, Glutamate receptor ionotropic, NMDA 1 (Rattus norvegicus, UniProt P35439); assay: Binding affinity in rat brain cortical membranes by the displacement of [3H]- DCKA at N-methyl-D-aspartate glutamate receptor 1; type: cell membranes
Mus musculus [8] = species: Mus musculus; assay: Mouse maximum electroshock induced test seizure test in mice; type: functional
Mus musculus [9] = assay: Antinociceptive activity in mouse tail flick test, when administered intrathecally; type: functional
Rattus norvegicus = assay: Reduction in cortical infarct volume when 20 mg/kg administarted Iv bolus followed by 14 mg/kg /h IV infusion for 22 hr in rat peramanent middle cerebral artery (MCA); type: functional
[10] = The steady state selectivity index for inhibition of NMDA/glycine receptors was estimated by dividing Kb (AMPA) by Kb (NMDA/glycine)
[11] = biological target: Glutamate receptor ionotropic, NMDA 1 (Rattus norvegicus) (UniProt P35439); assay: Inhibition of NMDA/glycine receptors was measured in oocytes expressing the cloned rat NMDA receptor subunit combination NR1A/2C; type: functional, cell-based; settings: Oocyte
[12] = biological target: T2, Glutamate receptor ionotropic, NMDA 1; assay: Inhibition of binding of [3H]DCKA to N-methyl-D-aspartate glutamate receptor 1 in rat brain membrane; type: cell membranes
[13] = biological target: T1, Glutamate receptor ionotropic, AMPA; assay: Inhibition of binding of [3H]AMPA to Ionotropic glutamate receptor AMPA in rat brain membrane; type: cell membranes
Mus musculus [14] = assay: Antinociceptive activity of tail flick test in mice, when administarted intrathecally; type: functional

| Compound | IC50 [1] [µM] | IC50 [2] [µM] | IC50 (Glutamate NMDA receptor) [µM] | logD [5] | ED50 (Mus musculus [6]) [mg/kg] | further results |
| --- | --- | --- | --- | --- | --- | --- |
| Oc1nc2cc(Cl)cnc2nc1O | 38 | 22 | 2.2 | – | – | – |
| O=c1[nH]c2ccc(Cl)cc2[nH]c1=O | 52 | 52 | – | – | – | – |
| O=C1Nc2cc(Cl)ccc2CC1[N+](=O)[O-] (configuration not stated) | – | – | – | – | – | Kb [3]: 6.7 µM; Kb [4]: 9.2 µM |
| [O-][n+]1cc(Br)cc2nc(O)c(O)nc21 | 6.7 | 3.4 | – | -2.48 | 0.87 | IC50 [7]: 1 µM |
| CN1CCc2c([N+](=O)[O-])cc3[nH]c(=O)c(=O)[nH]c3c2C1 | – | 0.36 | 0.37 | – | – | ED50 (Mus musculus [8]): 0.44 mg/kg |
| O=c1[nH]c2cc(Cl)c(Cl)c([N+](=O)[O-])c2[nH]c1=O [LICOSTINEL] | 1.5 | – | 0.0059 | 0.21 | 4 | – |
| Cc1cc2[nH]c(=O)c(=O)[nH]c2[n+]([O-])c1 | 14 | 11.9 | – | -2.91 | 0.97 | IC50 [7]: 5.9 µM |
| O=c1[nH]c2cc([N+](=O)[O-])c[n+]([O-])c2[nH]c1=O | 1.3 | 2.4 | – | -3.31 | 4.6 | ED50 (Mus musculus [9]): 2.6 ug mouse-1; IC50 [7]: 0.69 µM |
| [O-][n+]1cc(Cl)cc2nc(O)c(O)nc21 | 9.9 | 5.3 | 0.82 | -2.66 | 0.82 | Reduction (Rattus norvegicus): 67%; Selectivity index [10]: 6.2; Kb [11]: 0.63 µM; Kb [4]: 3.9 µM |
| O=[N+]([O-])c1ccc2cc(NS(=O)(=O)C(F)(F)F)c(O)nc2c1 | – | – | – | – | – | IC50 [12]: 0.62 µM; IC50 [13]: 0.63 µM |
| Oc1nc2cc(C(F)(F)F)cnc2nc1O | 18 | 16 | 1.9 | – | – | – |
| NS(=O)(=O)c1cccc2c1c([N+](=O)[O-])cc1nc(O)c(O)nc12 [NBQX] | – | – | – | – | – | ED50 (Mus musculus [14]): 1.6 ug mouse-1; ED50 (Mus musculus [8]): 13.1 mg/kg |
| O=[N+]([O-])c1cnc2nc(O)c(O)nc2c1 | 3.3 | 4.4 | 1.1 | -0.97 | 4.5 | Kb [3]: 0.43 µM; Kb [4]: 1.4 µM |
| O=[N+]([O-])c1ccc2nc(O)c(O)nc2c1 | 7.7 | 15 | 3.8 | – | – | – |
| Cc1cnc2nc(O)c(O)nc2c1 | 67 | 49 | 41 | – | – | – |
| Oc1nc2cc(Br)cnc2nc1O | 32 | 16 | 4.1 | – | – | – |
| O=c1[nH]c2cc(C(F)(F)F)c[n+]([O-])c2[nH]c1=O | 5.9 | 7.5 | – | -2.35 | 6.3 | IC50 [7]: 1.05 µM |

Source: ChEMBL document CHEMBL1130224, “5-(N-oxyaza)-7-substituted-1,4-dihydroquinoxaline-2,3-diones: novel, systemically active and broad spectrum antagonists for NMDA/glycine, AMPA, and kainate receptors” (J Med Chem, 1997)
